Experimental data published in patent US20230089247A1, “NOVEL COMPOUNDS SUITABLE FOR THE TREATMENT OF DYSLIPIDEMIA” (ZYDUS LIFESCIENCES LIMITED, priority 2019, published 2023).

Target: PCSK9 (Homo sapiens, UniProt Q8NBP7)
Assay: BODIPY-LDL uptake assay in HepG2 cells
Assay type: cell-based
Conditions: 5 μg/ml PCSK9, BODIPY-LDL
Description: BODIPY-LDL Uptake Assay in HepG2 Cells.
An established assay for PCSK9 inhibition features uptake of fluorescently labeled LDL nanoparticles (BODIPY-LDL) by hepatocytes and uptake of the BODIPY-containing particles is maximized in the absence of PCSK9.
In the LDL uptake assay, HepG2 cells were seeded at a density of 6×10^4 cells/well in a 96-well plate. After 24 h, the test compounds at various concentrations were pre-incubated with 5 μg/ml PCSK9 in 0.2% DMSO for 60 min prior to the addition on to the cells. After 16 h the medium was removed and 1 μg/ml BODIPY-LDL (Invitrogen) in serum free media was added and incubated for 5 h. Then the cells were washed twice with 0.25% BSA in PBS. Then the fluorescence of the cells in PBS was measured using TECAN multimode reader (Excitation: 485 nm and Emission: 520 nm). The readings were taken in triplicate and the final values were normalized with the protein concentration from respective wells. The wells without test compound containing external PCSK9 is considered as zero uptake and the one without PCSK9 was considered as 100% uptake. The percentage increase in LDL uptake for the test compounds were calculated using these values.

Chain of PCSK9 (Q8NBP7 153-692): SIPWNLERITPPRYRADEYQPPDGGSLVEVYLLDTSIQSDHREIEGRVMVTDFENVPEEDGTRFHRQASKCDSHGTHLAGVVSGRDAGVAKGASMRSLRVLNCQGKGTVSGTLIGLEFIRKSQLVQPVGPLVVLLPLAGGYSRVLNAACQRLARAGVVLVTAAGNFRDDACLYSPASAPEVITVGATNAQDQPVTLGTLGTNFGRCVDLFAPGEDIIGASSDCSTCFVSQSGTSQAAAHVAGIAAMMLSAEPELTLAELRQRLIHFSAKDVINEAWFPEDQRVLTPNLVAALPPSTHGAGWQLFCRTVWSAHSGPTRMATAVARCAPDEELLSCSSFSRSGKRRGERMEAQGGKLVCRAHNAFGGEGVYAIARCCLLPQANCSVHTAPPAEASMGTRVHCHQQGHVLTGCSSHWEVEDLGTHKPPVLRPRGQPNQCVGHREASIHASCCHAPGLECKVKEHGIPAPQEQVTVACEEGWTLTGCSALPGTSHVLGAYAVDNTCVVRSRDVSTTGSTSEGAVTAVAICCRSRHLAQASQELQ

| SMILES | % increase in LDL Uptake (1 μM test compound) [%] | % increase in LDL Uptake (10 μM test compound) [%] | % increase in LDL Uptake (30 μM test compound) [%] |
| --- | --- | --- | --- |
| COC1(c2ccc(NC(=O)N3CCC(c4ccc(C(F)(F)F)cc4)CC3)cc2)COC1 [Example 5, N-(4-(3-methoxyoxetan-3-yl)phenyl)-4-(4-(trifluoromethyl)phenyl) piperidine-1-carboxamide] | 41 | 76 | 72 |
| O=C(O)COC1(c2ccc(C(=O)N3CC4CN(c5ccc(C(F)(F)F)cc5)CC4C3)cc2)COC1 (stereo not drawn) [Example 13, 2-((3-(4-(5-(4-(trifluoromethyl)phenyl)octahydropyrrolo[3,4-c]pyrrole-2-carbonyl)phenyl)oxetan-3-yl)oxy)acetic acid] | 29 | 43 | 33 |
| OC1(c2ccc(-c3nc(-c4ccc(C(F)(F)F)c(F)c4)no3)cc2)COC1 [Example 16, 3-(4-(3-(3-fluoro-4-(trifluoromethyl)phenyl)-1,2,4-oxadiazol-5-yl)phenyl) oxetan-3-ol] | 38 | 22 | 19 |
| COc1ccc(C2CCN(C(=O)c3ccc(C4(O)COC4)cc3)CC2)cc1Cl [Example 26, (4-(3-chloro-4-methoxyphenyl)piperidin-1-yl)(4-(3-hydroxyoxetan-3-yl)phenyl)methanone] | 15 | 21 | 33 |
| COc1ccc(C2CCN(C(=O)c3ccc(C4(O)COC4)cc3)CC2)cc1 [Example 27, (4-(3-hydroxyoxetan-3-yl)phenyl)(4-(4-methoxyphenyl)piperidin-1-yl)methanone] | 14 | 21 | 38 |
| COc1ccc(C2CCN(C(=O)c3ccc(C4(O)COC4)cc3)CC2)cc1F [Example 28, (4-(3-fluoro-4-methoxyphenyl)piperidin-1-yl)(4-(3-hydroxyoxetan-3-yl)phenyl)methanone] | 0 | 8 | 39 |
| Cc1ccc(C2CCN(C(=O)c3ccc(C4(O)COC4)cc3)CC2)cc1Cl [Example 29, (4-(3-chloro-4-methylphenyl)piperidin-1-yl)(4-(3-hydroxyoxetan-3-yl)phenyl)methanone] | 0 | 17 | 49 |
| COC1(c2ccc(C(=O)N3CCC(c4cccc(C(F)(F)F)c4)CC3)cc2)COC1 [Example 37, (4-(3-methoxyoxetan-3-yl)phenyl)(4-(3-(trifluoromethyl)phenyl)piperidin-1-yl)methanone] | 31 | 65 | 36 |
| COC1(c2ccc(C(=O)N3CCC(c4ccc(C(F)(F)F)c(F)c4)CC3)cc2)COC1 [Example 38, (4-(3-fluoro-4-(trifluoromethyl)phenyl)piperidin-1-yl)(4-(3-methoxyoxetan-3-yl)phenyl)methanone] | 43 | 51 | 25 |
| CCOC1(c2ccc(C(=O)N3CCC(c4ccc(C(F)(F)F)c(F)c4)CC3)cc2)COC1 [Example 42, (4-(3-ethoxyoxetan-3-yl)phenyl)(4-(3-fluoro-4-(trifluoromethyl)phenyl)piperidin-1-yl)methanone] | 20 | 25 | 4 |

Second part, the compound after the results:

| % increase in LDL Uptake (1 μM test compound) [%] | % increase in LDL Uptake (10 μM test compound) [%] | % increase in LDL Uptake (30 μM test compound) [%] | SMILES |
| --- | --- | --- | --- |
| −2 | 39 | 34 | O=C(Nc1ccc(C2(O)COC2)cc1)C1CCN(c2ccc(C(F)(F)F)cc2)CC1 [Example 3, N-(4-(3-hydroxyoxetan-3-yl)phenyl)-1-(4-(trifluoromethyl)phenyl) piperidine-4-carboxamide] |
| 38 | 58 | 77 | O=C(Nc1ccc(C2(O)COC2)cc1)N1CCC(c2ccc(C(F)(F)F)cc2)CC1 [Example 4, N-(4-(3-hydroxyoxetan-3-yl)phenyl)-4-(4-(trifluoromethyl)phenyl) piperidine-1-carboxamide] |
| 28 | 63 | 128 | O=S(=O)(c1ccc(C2(O)COC2)cc1)N1CCN(c2ccc(C(F)(F)F)cc2)CC1 [Example 7, 3-(4-((4-(4-(trifluoromethyl)phenyl)piperazin-1-yl)sulfonyl)phenyl) oxetan-3-ol] |
| 21 | 32 | 34 | O=C(c1ccc(C2(OCCO)COC2)cc1)N1CC2CN(c3ccc(C(F)(F)F)cc3)CC2C1 (stereo not drawn) [Example 12, (4-(3-(2-hydroxyethoxy)oxetan-3-yl)phenyl)(5-(4-(trifluoromethyl)phenyl)hexahydropyrrolo[3,4-c]pyrrol-2(1H)-yl)methanone] |
| 0 | 20 | 122 | O=C(c1ccc(C2(O)COC2)cc1)N1CCC(c2cc(F)cc(C(F)(F)F)c2)CC1 [Example 14, (4-(3-fluoro-5-(trifluoromethyl)phenyl)piperidin-1-yl)(4-(3-hydroxyoxetan-3-yl)phenyl)methanone] |
| 0 | 7 | 18 | Cn1nc(-c2ccc(C(F)(F)F)cc2)c2c1CN(C(=O)c1ccc(C3(O)COC3)cc1)C2 [Example 20, (4-(3-hydroxyoxetan-3-yl)phenyl)(1-methyl-3-(4-(trifluoromethyl)phenyl)-4,6-dihydropyrrolo[3,4-c]pyrazol-5(1H)-yl)methanone] |
| 0 | 19 | 14 | O=C(c1ccc(C2(O)COC2)cc1)N1CCC(c2ccc(OC(F)(F)F)cc2)CC1 [Example 22, (4-(3-hydroxyoxetan-3-yl)phenyl)(4-(4-(trifluoromethoxy)phenyl)piperidin-1-yl)methanone] |
| 12 | 30 | 33 | O=C(c1ccc(C2(O)COC2)cc1)N1CCC(c2ccc(C(F)(F)F)c(Cl)c2)CC1 [Example 32, (4-(3-chloro-4-(trifluoromethyl)phenyl)piperidin-1-yl)(4-(3-hydroxyoxetan-3-yl)phenyl)methanone] |
| 59 | 73 | 69 | O=C(c1ccc(C2(O)COC2)cc1)N1CCC(c2ccccc2C(F)(F)F)CC1 [Example 33, (4-(3-hydroxyoxetan-3-yl)phenyl)(4-(2-(trifluoromethyl)phenyl)piperidin-1-yl)methanone] |
| 0 | 9 | 17 | CC(=O)OC1(c2ccc(C(=O)N3CCC(c4ccc(C(F)(F)F)cc4)CC3)cc2)COC1 [Example 36, 3-(4-(4-(4-(trifluoromethyl)phenyl)piperidine-1-carbonyl)phenyl) oxetan-3-yl acetate] |
| 31 | 56 | 77 | CC(C)OC1(c2ccc(C(=O)N3CCC(c4ccc(C(F)(F)F)cc4)CC3)cc2)COC1 [Example 44, (4-(3-isopropoxyoxetan-3-yl)phenyl)(4-(4-(trifluoromethyl)phenyl)piperidin-1-yl)methanone] |
